Data published in patent US11357779B2 (G1 Therapeutics, Inc., priority 2018, dated 2022).
Like-named read-outs stand apart in the source and are kept apart here.

Experiment: Plasma concentration versus time of Compound I and metabolite Compound III in patients dosed QD or BID with Form B of Compound II plus fulvestrant
Type: in vivo, human
Conditions: for Trough Compound I Concentration, Max / Trough Compound I Concentration, Mean / Trough Compound I Concentration, Median / Trough Compound I Concentration, Min / Compound I Concentration, Max / Compound I Concentration, Median: Cohort 8, 200 mg BID of Form B; for concentration at 0 h / concentration at 1 h / concentration at 2 h / concentration at 3 h / concentration at 4 h / concentration at 6 h / concentration at 8 h / concentration at 10 h / concentration at 12 h / concentration at 8 day / concentration at 15 day / concentration at 22 day: human, plasma, oral, 100 mg; for concentration at 1 h: Day 1, 1.0 h; for concentration at 2 h: Day 1, 2.0 h; for concentration at 3 h: Day 1, 3.0 h; for concentration at 4 h: Day 1, 4.0 h; for concentration at 6 h: Day 1, 6.0 h; for concentration at 8 h: Day 1, 8.0 h; for concentration at 10 h: Day 1, 10.0 h; for concentration at 12 h: Day 1, 12.0 h
Source text: Patients were enrolled into 1 of 2 parallel, independently operating, dose-escalation dosing cohorts with Form B of Compound II administered continuously either once daily (QD) or twice daily (BID) with food with fixed-dose fulvestrant (intramuscularly every 14 days for the first three injections and then every 28 days). Pre- or perimenopausal patients also received goserelin for the duration of study treatment. A […] agonist was started at least 28 days before the first dose of Form B, and those patients who were taking another LHRH agonist were switched to goserelin on Day 1. Patients were split into […] cohorts providing once a day (QD) dosing of 200 mg, 300 mg, 400 mg, 500 mg, or 650 mg of Form B, or twice a day (BID) dosing of 100 mg, 150 mg, or 200 mg of Form B. The second dose in BID cohorts was not administered in the evening until at least 12 hours after the initial morning dose of Form B. The dosing cohorts for Form B of Compound II are provided in Table 1.
Blood samples were collected at the following time points relative to the morning dose of Form B at Day 1 and at Day 29: pre-dose (0 hour) and 1, 2, 3, 4, 6, 8, 10, 12 (prior to the evening dose in the BID cohorts), and 24 (prior to the next day's morning dose) hours after dosing. A 5-minute time window was allowed for samples collected between the predose and 3 hours after Form B dosing. A 15-minute window was allowed for samples collected between 4 to 12 hours after Form B dosing. A 1-hour window was allowed for the sample collected 24 hours after Form B dosing. Blood samples for Compound I PK trough levels were collected pre-dose at Day 8, Day 15, and Day 22 prior to the morning administration of Compound I. Plasma concentrations of Compound I and its metabolite, Compound III, were measured using validated methods.
Analysis of plasma concentration versus time data for calculation of standard pharmacokinetic (PK) parameters following oral administration was conducted using Phoenix WinNonlin version 6.3 using actual blood sampling times.

[1] = 100 mg BID of Form B, Mean, read-out: Compound I Concentration
[2] = 100 mg BID of Form B, Median, read-out: Compound I Concentration

With `CC(C)N1CCN(c2ccc(Nc3ncc4cc5n(c4n3)C3(CCCCC3)CNC5=O)nc2)CC1` [Compound I, 2′-((5-(4-isopropylpiperazin-1-yl)pyridin-2-yl)amino)-7′,8′-dihydro-6′H-spiro[cyclohexane-1,9′-pyrazino[1′,2′:1,5]pyrrolo[2,3-d]pyrimidin]-6′-one] the “Trough Compound I Concentration, Max” value (Day 8) was 19.7 ng/mL, the “Trough Compound I Concentration, Mean” value (Day 8) was 9.41 ng/mL and the “Trough Compound I Concentration, Median” value (Day 8) was 6.82 ng/mL. For the same compound, the “Trough Compound I Concentration, Min” value (Day 8) was 1.72 ng/mL, the “Trough Compound I Concentration, Max” value (Day 15) was 16.3 ng/mL and the “Trough Compound I Concentration, Mean” value (Day 15) was 11.0 ng/mL. The “Trough Compound I Concentration, Median” value (Day 15) was 11.0 ng/mL, the “Trough Compound I Concentration, Min” value (Day 15) was 5.71 ng/mL and the “Trough Compound I Concentration, Max” value (Day 22) was 15.5 ng/mL. For the same compound, the “Trough Compound I Concentration, Mean” value (Day 22) was 7.11 ng/mL, the “Trough Compound I Concentration, Median” value (Day 22) was 5.83 ng/mL and the “Trough Compound I Concentration, Min” value (Day 22) was 0.00 ng/mL. For the same compound, the “Compound I Concentration, Max” value (Day 29, 0.0 h) was 17.2 ng/mL, the “Compound I Concentration, Median” value (Day 29, 0.0 h) was 6.54 ng/mL and the “Compound I Concentration, Max” value (Day 29, 1.0 h) was 13.3 ng/mL. For the same compound, the “Compound I Concentration, Median” value (Day 29, 1.0 h) was 9.29 ng/mL, the “Compound I Concentration, Max” value (Day 29, 2.0 h) was 17.0 ng/mL and the “Compound I Concentration, Median” value (Day 29, 2.0 h) was 13.3 ng/mL. For the same compound, the “Compound I Concentration, Max” value (Day 29, 3.0 h) was 22.5 ng/mL, the “Compound I Concentration, Median” value (Day 29, 3.0 h) was 15.6 ng/mL and the “Compound I Concentration, Max” value (Day 29, 4.0 h) was 30.5 ng/mL. The “Compound I Concentration, Median” value (Day 29, 4.0 h) was 25.1 ng/mL, the “Compound I Concentration, Median” value (Day 29, 6.0 h) was 21.1 ng/mL and the “Compound I Concentration, Median” value (Day 29, 8.0 h) was 14.8 ng/mL. The “Compound I Concentration, Median” value (Day 29, 10.0 h) was 11.7 ng/mL, the “Compound I Concentration, Median” value (Day 29, 12.0 h) was 12.4 ng/mL and the concentration at 0 h (100 mg BID of Form B, Day 1, 0.0 h, Mean, read-out: Compound I Concentration) was 0 ng/mL. It also gave a concentration at 0 h (100 mg BID of Form B, Day 1, 0.0 h, Median, read-out: Compound I Concentration) of 0 ng/mL, a concentration at 1 h [1] of 2.8 ng/mL and a concentration at 1 h [2] of 2.6 ng/mL. It also gave a concentration at 2 h [1] of 6.21 ng/mL, a concentration at 2 h [2] of 5.71 ng/mL and a concentration at 3 h [1] of 8.72 ng/mL. For the same compound, the concentration at 3 h [2] was 8.09 ng/mL, the concentration at 4 h [1] was 8.98 ng/mL and the concentration at 4 h [2] was 7.47 ng/mL. It also gave a concentration at 6 h [1] of 5.7 ng/mL, a concentration at 6 h [2] of 5.12 ng/mL and a concentration at 8 h [1] of 4.07 ng/mL. The concentration at 8 h [2] was 3.71 ng/mL, the concentration at 10 h [1] was 3.29 ng/mL and the concentration at 10 h [2] was 2.91 ng/mL. For the same compound, the concentration at 12 h [1] was 2.93 ng/mL, the concentration at 12 h [2] was 2.2 ng/mL and the concentration at 8 day (Cohort 6, 100 mg BID of Form B, Day 8, read-out: Trough Compound I Concentration, Max) was 23.7 ng/mL. It also gave a concentration at 8 day (Cohort 6, 100 mg BID of Form B, Day 8, read-out: Trough Compound I Concentration, Mean) of 8.78 ng/mL, a concentration at 8 day (Cohort 6, 100 mg BID of Form B, Day 8, read-out: Trough Compound I Concentration, Median) of 5.49 ng/mL and a concentration at 8 day (Cohort 6, 100 mg BID of Form B, Day 8, read-out: Trough Compound I Concentration, Min) of 3.29 ng/mL. The concentration at 15 day (Cohort 6, 100 mg BID of Form B, Day 15, read-out: Trough Compound I Concentration, Max) was 22 ng/mL, the concentration at 15 day (Cohort 6, 100 mg BID of Form B, Day 15, read-out: Trough Compound I Concentration, Mean) was 8.92 ng/mL and the concentration at 15 day (Cohort 6, 100 mg BID of Form B, Day 15, read-out: Trough Compound I Concentration, Median) was 6.34 ng/mL. It also gave a concentration at 15 day (Cohort 6, 100 mg BID of Form B, Day 15, read-out: Trough Compound I Concentration, Min) of 3.31 ng/mL, a concentration at 22 day (Cohort 6, 100 mg BID of Form B, Day 22, read-out: Trough Compound I Concentration, Max) of 10.9 ng/mL and a concentration at 22 day (Cohort 6, 100 mg BID of Form B, Day 22, read-out: Trough Compound I Concentration, Mean) of 5.7 ng/mL. It also gave a concentration at 22 day (Cohort 6, 100 mg BID of Form B, Day 22, read-out: Trough Compound I Concentration, Median) of 4.42 ng/mL, a concentration at 22 day (Cohort 6, 100 mg BID of Form B, Day 22, read-out: Trough Compound I Concentration, Min) of 2.34 ng/mL and a concentration at 0 h (Cohort 6, 100 mg BID of Form B, Day 29, 0.0 h, read-out: Compound I Concentration, Max) of 9.2 ng/mL. It also gave a concentration at 0 h (Cohort 6, 100 mg BID of Form B, Day 29, 0.0 h, read-out: Compound I Concentration, Mean) of 4.35 ng/mL.
